# Source: patent US5674864A, “N-substituted derivatives of α-mercapto alkylamines, their preparation process and the intermediates obtained, their use as medicaments and the compositions containing them” (Roussel Uclaf, priority 1990, dated 1997)
# Key:
# enkephalinase = target: T1, enkephalinase (Rattus norvegicus, UniProt P07861); experiment: Determination of the enkephalinase inhibiting effect; assay type: biochemical; conditions: renal membrane fraction of a rat; substrate Succinyl-Ala-Ala-Phe-amino-methylcoumarine; 37° C., 30 minutes, pH 7.5
# T1 construct: from tissue; host or cells: rat kidney, renal membrane fraction solubilised with octyl beta-D-glucopyranoside (100,000 g supernatant)
# T1 sequence (P07861 1-750): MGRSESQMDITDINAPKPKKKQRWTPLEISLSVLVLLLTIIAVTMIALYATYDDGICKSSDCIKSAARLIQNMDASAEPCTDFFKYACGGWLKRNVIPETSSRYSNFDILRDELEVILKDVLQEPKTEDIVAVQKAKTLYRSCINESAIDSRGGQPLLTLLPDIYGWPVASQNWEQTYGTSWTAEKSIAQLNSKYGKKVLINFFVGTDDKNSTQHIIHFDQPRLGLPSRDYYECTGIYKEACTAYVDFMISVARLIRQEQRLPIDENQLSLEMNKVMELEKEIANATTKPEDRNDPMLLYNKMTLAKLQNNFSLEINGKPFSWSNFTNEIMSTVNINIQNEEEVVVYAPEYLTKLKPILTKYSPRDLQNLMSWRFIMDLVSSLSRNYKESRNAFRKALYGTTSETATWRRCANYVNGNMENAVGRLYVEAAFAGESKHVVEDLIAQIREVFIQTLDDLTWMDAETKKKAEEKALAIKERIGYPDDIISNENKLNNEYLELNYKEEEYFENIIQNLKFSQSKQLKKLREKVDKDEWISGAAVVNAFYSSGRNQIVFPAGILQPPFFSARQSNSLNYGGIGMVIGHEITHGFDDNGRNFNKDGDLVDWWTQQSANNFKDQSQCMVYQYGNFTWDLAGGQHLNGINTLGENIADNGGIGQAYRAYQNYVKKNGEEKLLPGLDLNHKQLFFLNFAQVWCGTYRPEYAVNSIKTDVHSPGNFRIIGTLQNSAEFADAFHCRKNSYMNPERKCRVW
# Experimental: 1) Determination of the enkephalinase inhibiting effect
# The enkephalinase activity was determined from a renal membrane fraction of a rat. The kidneys were removed on ice and homogenized in a HEPES 0.05M pH 7.5 buffer containing magnesium chloride (50 times the volume). After a first centrifugation at 1,500 g, the specific fraction was obtained from a centrifugation at 15,000 g for 20 minutes. The deposit was then washed and suspended in a HEPES buffer and kept at -20° C. An aliquot of this membrane preparation was put in the presence of octyl beta-D-glucopyranoside (50 mM as final […]) for 15 minutes at 4° C. After centrifugation at 100,000 g for one hour, the supernatant was removed and frozen in aliqots at -20° C. The concentration of proteins was determined by the method using Comassie's blue.
# An aliquot of the protein fraction thus prepared was preincubated at 25° C. for 10 minutes in a HEPES 0.05M pH 7.5 buffer or in the presence of the product to be studied. The substrate added was a non-natural enkephalin of formula Succinyl-Ala-Ala-Phe-amino-methylcoumarine (reference 1) (40mM as final concentration). The incubation continued at 37° C. for 30 minutes and then the reaction was stopped by heating to 95° C. for 5 minutes and each incubate was centrifuged. A solution of amino peptidase M (4 mM as final concentration) and thiorphan (reference 2) (10^-5 M) was added to the supernatant and the mixture was taken to 37° C. for one hour. The reaction was stopped as previously described and the fluorescence of 7-amino-methyl-coumarine produced was determined. The effect of the products to be tested was determined by calculating the IC50, the concentration which inhibited the hydrolysis of the substrate by 50%.
# Reference 1: R. A. Munford, P. A. Pierzchala, A-W Strauss and M. Zimmerman, Purification of a membrane-bound metalloendo peptidase from porcine kidney that degrades peptides hormones. Proc. Natl. Acad. Sci 78, No. 11, p. 6623.
# Reference 2: Inhibitor of enkephalinase described in Example 20 of French Patent No. 2,480,747.
# [1] = Stretchings caused by acetic acid in a mouse (analgesic activity); assay type: in vivo; conditions: 0.25 h, PO, half-an-hour before intraperitoneal acetic acid, 15 minutes observation, read-out: DA50 (dose which allows a decrease of 50% in the number of stretchings)
# Experimental: 2) Study of analgesic activity in a mouse Stretchings caused by acetic acid in a mouse
# The test used was based on the fact indicated by KOSTER, et al [Fed. Proc. (1959), Vol. 1B, p. 412] according to which the intraperitoneal injection of acetic acid causes, in a mouse, repeated stretching and twisting movements which can persist for more than 6 hours. Analgesics prevent or lessen this syndrome which can be considered as the outward display of a widespread abdominal pain. A 1% solution of acetic acid in water was used and was administered at a volume of 10 ml/kg. The studied product was administered by buccal route half-an-hour before the acetic acid injection, the mice having gone without food for at least 6 hours. The stretchings were observed and counted for Each mouse for an observation period of 15 minutes. The results were expressed by means of the DA50, that is the dose which allows a decrease of 50% in the number of stretchings to be obtained relative to the control animals.
# Hot-plate test = assay type: in vivo; conditions: Mus musculus, 0.5 h, po, male mice, plate at 56° C., 30 minutes after oral administration; for ED50: read-out: DA50 (dose which increased the reaction time by 50%); for ED100: read-out: DA100 (dose which increased the reaction time by 100%)
# Experimental: Male mice weighing 22 g were placed individually on a copper plate maintained at 56° C. by a thermostatically-controlled water bath. […] The reaction time to the heat stimulus was noted and only animals reacting within 4.5 and 6.5 seconds were retained. The reaction time to the pain was measured 30 minutes after oral administration. The variations in the reaction time were expressed as a percentage of the initial time. The DA50 and DA100, or doses which increased the reaction time by 50 and 100%, taking into account variations in the control group, were determined by a graph or by the method of the least squares.
SMILES,IC50 (enkephalinase),ED50 [1],ED50 (Hot-plate test),ED100 (Hot-plate test)
"CCCN(CCC)C(=O)NC(CS)Cc1ccccc1 (single isomer, unassigned; (+)) [Example 18, (+) N,N-dipropyl-N'-[2-mercapto-1-(phenylmethyl)-ethyl]urea]",180 nM,33 mg/kg,33 mg/kg,100 mg/kg
"CONC(=O)NC(CSC(C)=O)Cc1ccccc1 (stereo not drawn) [Example 1, S-[2-(3-methoxy-ureido)-3-phenyl-propyl]-ethanethioate]",87 nM,71 mg/kg,–,–
CC(=O)SCC(Cc1ccccc1)NC(=O)N(C)O (stereo not drawn) [Example 5],–,–,100 mg/kg,200 mg/kg
"COC(=O)CNC(=O)NC(CSC(C)=O)Cc1ccccc1 (stereo not drawn) [Example 11, Methyl N-[[[2-(acetylthio)-1-(phenylmethyl)-ethyl]-amino]-carbonyl]-glycinate]",–,85 mg/kg,100 mg/kg,–
"CCCN(CCC)C(=O)NC(CSC(C)=O)Cc1ccccc1 (stereo not drawn) [Example 17, S-[2-[3-bis(propyl)-ureido]-3-phenyl-propyl]-ethanethioate]",48 nM,–,–,–

# The remaining compounds from weak to strong by IC50 (enkephalinase), led by results:
IC50 (enkephalinase),SMILES,ED50 [1],ED50 (Hot-plate test),ED100 (Hot-plate test)
100 nM,"CC(=O)SCC(Cc1ccccc1)NC(=O)Nc1ccccc1 (stereo not drawn) [Example 15, S-[2-(3-phenyl-ureido)-3-phenylpropyl]ethanethioate]",–,–,–
70 nM,"O=C(Nc1ccccc1)NC(CS)Cc1ccccc1 (single isomer, unassigned; (+)) [Example 16]",50 mg/kg,–,–
3.5 nM,"CN(O)C(=O)NC(CS)Cc1ccccc1 (single isomer, unassigned; (+)) [Example 6, (+) N-hydroxy-N'-[2-mercapto-1-(phenylmethyl)-ethyl]-N-methyl urea]",–,–,–
